{"source": "patent US20030216361A1", "about": "“Therapeutic compositions effective against gram positive bacteria” (priority 2000, published 2003)", "test_system": "ATCC 14154, mouse virulent Staphylococcus aureus", "assay": "Mouse model of topical Gram positive (Staphylococcus aureus) infection, infected suture", "type": "in vivo", "details": "Group 5 enrofloxacin (Baytril) 10 mg/kg SQ SID×7 days, mice", "protocol": "The model, as described in J. Gisby and J. Bryant, Antimicrobial Agents and Chemotherapy, February 2000, Vol. 44, No. 2, p 255-260, was used.\nFifty HSD:ICR male mice weighing 12-14 grams were ordered and allowed to acclimate 7 days. Mice were allocated to 5 groups of 10 animals each.\nGroup 1: infected suture placed, no treatment\nGroup 2: topical GRPB, 12.5 mg/kg BID×7 days\nGroup 3: topical GRPB, 25 mg/kg BID×7 days\nGroup 4: clean suture, no treatment\nGroup 5: enrofloxacin (Baytril) 10 mg/kg SQ SID×7 days\nATCC 14154, mouse virulent Staphylococcus aureus was grown in BHI broth overnight (12 hours) at 38 degrees C. Forty-five minutes prior to surgery, silk suture (2-0 size, 1 cm lengths w/swaged-on blunt needle) was soaked in the broth for 30 minutes, excess liquid was then removed by blotting with filter paper.\nMice were anesthetized with a ketamine (40 mg/kg), midazolam (2 mg/kg), and butorphanol (0.1 mg/kg) as a single IP injection.\nThe skin on the back of the mouse was prepared for aseptic surgery by clipping, cleansing with iodine scrub, and rinsing with alcohol. Mice were kept warm during surgery on a recirculating hot water blanket.\nThe suture was placed just under the skin on the dorsum of the animal using sterile instruments. The suture was knotted in the subcutaneous tissue to keep it in place. A half-thickness skin wound was made over the suture using the side of an 18 gauge needle as a scalpel.\nMice were allowed to recover in the home cage.\nGRPB-10-15A was reconstituted as directed, using a minimal amount of methanol followed by dilution to required volume in sterile physiologic saline.\nInjections were given using insulin syringes with 30 gauge needles. Topical administration was placed over the wound site. The mice were first treated 4 hours after surgery and were treated once or twice daily thereafter.\nAfter 7 days of treatment animals were euthanized with IP pentobarbital euthanasia solution. The suture lengths were removed and placed in 2 mls phosphate buffered saline. Serial dilutions were performed and results reported as actual counts (number of Staph colonies per suture).", "note": "Where “and” joins values, the source holds several entries; their conditions need not be identical. Equal values may be shown once."}
{"smiles": "CCN1CCN(c2cc3c(cc2F)c(=O)c(C(=O)O)cn3C2CC2)CC1", "note": "[Baytril, enrofloxacin, reference compound]", "values": [{"measurement": "Total colonies (number of Staph colonies per suture), individual animals", "setting": "animals 1-10, 10 mg/kg", "value": "18 colonies per suture and 30 colonies per suture and 24 colonies per suture and 100 colonies per suture and 0 colonies per suture (2×) and 74 colonies per suture and 13 colonies per suture and 740 colonies per suture and 22 colonies per suture"}, {"measurement": "Total colonies (number of Staph colonies per suture), Ave.", "setting": "average of 10 animals", "value": 102, "unit": "colonies per suture"}]}
